Measurements: US20040024024A1, “Aromatic sulfone hydroxamates and their use as protease inhibitors” (priority 2001, published 2004)
Structures can show the parent of a compound that is named as a salt. Blank lines part the entries; values can stand above or below the compound they belong to.

Experiments:
Assay in all cases: In vitro MMP inhibition, IC50 determination (fluorogenic substrate I)
Assay type in all cases: biochemical
[1] = molecular target: T1, Human recombinant MMP-1 (Homo sapiens, UniProt P03956)
T1 construct: made in house; host or cells: MMP-1-transfected HT-1080 cells (spent media)
T1 sequence (P03956 100-469): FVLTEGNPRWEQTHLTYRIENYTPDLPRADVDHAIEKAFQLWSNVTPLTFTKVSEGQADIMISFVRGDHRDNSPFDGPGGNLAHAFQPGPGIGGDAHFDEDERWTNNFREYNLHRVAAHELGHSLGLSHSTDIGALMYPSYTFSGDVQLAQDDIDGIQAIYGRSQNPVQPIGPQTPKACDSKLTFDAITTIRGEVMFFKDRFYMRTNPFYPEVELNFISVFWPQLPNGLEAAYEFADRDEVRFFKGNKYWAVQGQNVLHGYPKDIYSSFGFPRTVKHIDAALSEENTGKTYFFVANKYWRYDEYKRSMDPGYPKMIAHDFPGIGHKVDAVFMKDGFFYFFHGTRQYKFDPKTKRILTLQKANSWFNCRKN
Outline: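 Inhibitor dilutions were made in 100 mM Tris-HCl/100 mM NaCl/10 mM CaCl2 buffer, pH 7.5, and incubated at room temperature with activated proenzyme (from transfected HT-1080 media; APMA or trypsin) and 4 μM quenched methoxycoumarin peptide substrate. Loss of 415 nm fluorescence (328 nm excitation) against concentration gave IC50.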

[2] = molecular target: T2, Human recombinant MMP-2 (Homo sapiens, UniProt P08253)
T2 construct: made in house; host or cells: MMP-2-transfected p2AHT2 cells
T2 sequence (P08253 110-660): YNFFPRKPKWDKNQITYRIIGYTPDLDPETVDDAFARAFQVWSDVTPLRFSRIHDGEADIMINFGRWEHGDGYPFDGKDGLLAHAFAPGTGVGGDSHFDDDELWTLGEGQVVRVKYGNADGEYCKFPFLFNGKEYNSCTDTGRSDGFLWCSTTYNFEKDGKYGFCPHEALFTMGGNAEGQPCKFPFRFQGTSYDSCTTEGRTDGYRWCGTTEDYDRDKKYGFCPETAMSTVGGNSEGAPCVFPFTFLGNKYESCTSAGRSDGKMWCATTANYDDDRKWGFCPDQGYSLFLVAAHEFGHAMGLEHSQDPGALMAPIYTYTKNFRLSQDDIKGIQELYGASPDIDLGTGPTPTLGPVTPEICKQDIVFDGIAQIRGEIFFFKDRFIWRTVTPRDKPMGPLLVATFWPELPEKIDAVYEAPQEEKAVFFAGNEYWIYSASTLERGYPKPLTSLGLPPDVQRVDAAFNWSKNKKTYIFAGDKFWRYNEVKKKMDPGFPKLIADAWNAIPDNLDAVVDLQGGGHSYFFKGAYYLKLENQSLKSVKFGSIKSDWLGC
Outline: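 IC50 was derived from the concentration-dependent fall in fluorescence (ex 328, em 415 nm) on Gly-Leu cleavage of 4 μM MCA/Dpa-quenched substrate I. Assays ran at room temperature in pH 7.5 Tris/NaCl/CaCl2/Brij buffer with MMP-2 activated by trypsin or APMA; inhibitors were diluted from 1% DMSO stocks.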

[3] = molecular target: T3, Human recombinant MMP-14 (Homo sapiens, UniProt P50281)
T3 construct: The catalytic domain enzyme was expressed in E. coli inclusion bodies, solubilized in urea; made in house
Outline: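 IC50 came from reduced fluorescence (ex 328 nm, em 415 nm) as inhibitor concentration rose, with 4 μM substrate I cleaved at Gly-Leu. Room-temperature incubation in pH 7.5 Tris buffer with 10 mM CaCl2; the E. coli-expressed, refolded MMP-14 catalytic domain was activated with trypsin or APMA.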

[4] = molecular target: T4, Human recombinant MMP-13 (Homo sapiens, UniProt P45452)
T4 construct: made in house; host or cells: baculovirus / insect cells
Outline: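 Fluorescence at 415 nm (excitation 328 nm) reports Gly-Leu cleavage of 4 μM quenched methoxycoumarin peptide substrate I. Human recombinant MMP-13, activated by trypsin or APMA, was incubated at room temperature with varied inhibitor concentrations in pH 7.5 Tris/NaCl/CaCl2 buffer; IC50 derived from reduced fluorescence.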

[5] = molecular target: T5, Human recombinant MMP-9 (Homo sapiens, UniProt P14780)
T5 construct: made in house; host or cells: MMP-9-transfected HT1080 cells (spent media)
Outline: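 Reduction in fluorescence (328 nm excitation, 415 nm emission) from cleavage of 4 μM quenched peptide substrate I, measured at room temperature against inhibitor concentration, gave IC50. Enzyme: trypsin- or APMA-activated MMP-9 purified from transfected HT1080 medium; buffer 100 mM Tris, 100 mM NaCl, 10 mM CaCl2, pH 7.5.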

[6] = value outside parentheses (Ki in parenthesis)
[7] = substrate (I) 4 μM, room temperature, values not in parenthesis

T5 sequence (P14780 107-707 limits assumed): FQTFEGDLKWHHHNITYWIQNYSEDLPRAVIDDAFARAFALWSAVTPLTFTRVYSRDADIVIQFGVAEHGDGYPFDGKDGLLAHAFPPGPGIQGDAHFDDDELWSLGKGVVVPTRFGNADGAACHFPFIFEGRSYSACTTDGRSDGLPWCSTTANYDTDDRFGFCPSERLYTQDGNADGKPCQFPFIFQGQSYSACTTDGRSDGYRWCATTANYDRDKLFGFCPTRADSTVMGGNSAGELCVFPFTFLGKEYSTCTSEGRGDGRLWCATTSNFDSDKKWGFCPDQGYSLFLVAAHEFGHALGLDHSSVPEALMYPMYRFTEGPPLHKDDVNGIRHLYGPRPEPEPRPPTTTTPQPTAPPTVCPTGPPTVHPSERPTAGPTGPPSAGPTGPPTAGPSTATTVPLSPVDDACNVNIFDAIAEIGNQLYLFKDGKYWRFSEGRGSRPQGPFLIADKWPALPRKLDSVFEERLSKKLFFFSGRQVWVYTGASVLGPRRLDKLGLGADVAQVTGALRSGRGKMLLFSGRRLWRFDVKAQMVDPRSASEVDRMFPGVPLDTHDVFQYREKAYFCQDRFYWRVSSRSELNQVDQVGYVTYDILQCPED

- IC50 [1, 6]: > 10000 nM
- IC50 [2, 6]: 92.9 nM
- IC50 [3, 6]: > 10000 nM
- IC50 [4, 6]: 1.7 nM
- IC50 [5, 6]: 185 nM
Structure (SMILES): COc1ccc(C(=O)C(C)CCOc2ccc(S(=O)(=O)C3(C(=O)NO)CCOCC3)cc2)cc1 (centres unmarked) [Example 306]

- IC50 ([1]; value outside parentheses): > 10000 nM
- IC50 ([2]; value outside parentheses): 41.9 nM
- IC50 ([3]; value outside parentheses): 9430 nM
- IC50 ([4]; value outside parentheses): 9.55 nM
- IC50 ([5]; value outside parentheses): 120 nM
Structure (SMILES): O=C(NO)C1(S(=O)(=O)c2ccc(OCCOCc3ccncc3)cc2)CCOCC1 [Example 516]

- IC50 ([1]; value outside parentheses): > 10000 nM
- IC50 ([2]; value outside parentheses): 24.1 nM
- IC50 ([3]; value outside parentheses): > 10000 nM
- IC50 ([4]; value outside parentheses): 28.4 nM
- IC50 ([5]; value outside parentheses): 69.9 nM
Structure (SMILES): O=C(NO)C1(S(=O)(=O)c2ccc(OCCOCC3CC3)cc2)CCOCC1 [Example 655]

- IC50 [1, 7]: > 10000 nM
- IC50 [2, 7]: 4.8 nM
- IC50 [3, 7]: 2080 nM
- IC50 [4, 7]: 1 nM
- IC50 [5, 7]: 1 nM
Structure (SMILES): COCCN1CCC(C(=O)NO)(S(=O)(=O)c2ccc(OCCCSc3nc4ccccc4o3)cc2)CC1 [Example 43, 4-([4-[3-(1,3-benzoxazol-2-ylthio)propoxy]phenyl]sulfonyl)-N-hydroxy-1-(2-methoxyethyl)piperidine-4-carboxamide Hydrochloride]

- IC50 ([1]; value outside parenthesis): > 10000 nM
- IC50 ([2]; value outside parenthesis): 178 nM
- IC50 ([3]; value outside parenthesis): > 10000 nM
- IC50 ([4]; value outside parenthesis): 1.9 nM
- IC50 ([5]; value outside parenthesis): 1190 nM
Structure (SMILES): O=C(NO)C1(S(=O)(=O)c2ccc(OCCCc3nnc(-c4ccccc4Cl)o3)cc2)CCOCC1 [Example 261]

Continued, compound first:

Structure (SMILES): COc1ccc(C(=O)CCCCOc2ccc(S(=O)(=O)C3(C(=O)NO)CCN(C4CC4)CC3)cc2)cc1 [Example 277]
- IC50 ([1]; value outside parenthesis): > 10000 nM
- IC50 ([2]; value outside parenthesis): 3.5 nM
- IC50 ([3]; value outside parenthesis): > 10000 nM
- IC50 ([4]; value outside parenthesis): 0.2 nM
- IC50 ([5]; value outside parenthesis): 41.5 nM

Structure (SMILES): O=C(NO)C1(S(=O)(=O)c2ccc(OCCCO)cc2)CCOCC1 [Example 449]
- IC50 [1, 6]: 1930 nM
- IC50 [2, 6]: 3.7 nM
- IC50 [3, 6]: 58 nM
- IC50 [4, 6]: 7 nM
- IC50 [5, 6]: 41 nM

Structure (SMILES): CC1CC(C)CN(S(=O)(=O)CCCOc2ccc(S(=O)(=O)C3(C(=O)NO)CCOCC3)cc2)C1 (centres unmarked) [Example 271]
- IC50 ([1]; value outside parenthesis): > 10000 nM
- IC50 ([2]; value outside parenthesis): 8.7 nM
- IC50 ([3]; value outside parenthesis): > 10000 nM
- IC50 ([4]; value outside parenthesis): 2.9 nM
- IC50 ([5]; value outside parenthesis): 532 nM

Structure (SMILES): CCCCCc1ccc(-c2nnc(CCCOc3ccc(S(=O)(=O)C4(C(=O)NO)CCOCC4)cc3)o2)cc1 [Example 316]
- IC50 [1, 6]: 2680 nM
- IC50 [2, 6]: 2840 nM
- IC50 [3, 6]: > 10000 nM
- IC50 [4, 6]: 13.6 nM
- IC50 [5, 6]: 692 nM

Structure (SMILES): O=C(CCCOc1ccc(S(=O)(=O)C2(C(=O)NO)CCOCC2)cc1)c1ccccc1 [Example 492]
- IC50 ([1]; value outside parentheses): 3550 nM
- IC50 ([2]; value outside parentheses): 3.5 nM
- IC50 ([3]; value outside parentheses): 574 nM
- IC50 ([4]; value outside parentheses): 0.7 nM
- IC50 ([5]; value outside parentheses): 67.3 nM

Structure (SMILES): COc1ccc(C(=O)CCCCOc2ccc(S(=O)(=O)C3(C(=O)NO)CCOCC3)cc2)c(OC)c1 [Example 351]
- IC50 [1, 6]: > 10000 nM
- IC50 [2, 6]: 34.1 nM
- IC50 [3, 6]: > 10000 nM
- IC50 [4, 6]: 1 nM
- IC50 [5, 6]: 2220 nM

Structure (SMILES): COc1ccc(/C(C)=C/CCCOc2ccc(S(=O)(=O)C3(C(=O)NO)CCOCC3)cc2)cc1 [Example 28, tetrahydro-N-hydroxy-4-[[4[[(4E)-5-(4-methoxyphenyl)-4-hexenyl]oxy]phenyl]sulfonyl]-2H-pyran-4-carboxamide]
- IC50 [1, 7]: > 10000 nM
- IC50 [2, 7]: 76.4 nM
- IC50 [3, 7]: > 10000 nM
- IC50 [4, 7]: 7 nM
- IC50 [5, 7]: 3710 nM

Structure (SMILES): CN(C)c1ccc(NC(=O)CCCOc2ccc(S(=O)(=O)C3(C(=O)NO)CCOCC3)cc2)cc1 [Example 357]
- IC50 [1, 6]: > 10000 nM
- IC50 [2, 6]: 10.2 nM
- IC50 [3, 6]: > 10000 nM
- IC50 [4, 6]: 1.7 nM
- IC50 [5, 6]: 952 nM
